Data taken from ChEMBL document CHEMBL1201862, “PubChem BioAssay data set” (2004).
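All cell lines were grown in 96-well plates and treated with compound for 48 hours. GI50 is the concentration that inhibits growth by half.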 The source made the active and inactive calls. No stated cut-off is given here; in the data, active = GI50 up to about 1.1 µM and inactive = higher.

Assays:
Test in all cases: NCI anticancer screen, dose series, 48 h
[1] = tested on: CCRF-CEM
[2] = tested on: SR
[3] = tested on: HOP-92
[4] = tested on: CAKI-1
[5] = tested on: LOX IMVI
[6] = tested on: SN12C
[7] = tested on: SK-MEL-28
[8] = tested on: NCI-H226
[9] = tested on: SF-268
[10] = tested on: OVCAR-5
[11] = tested on: U-251
[12] = tested on: 786-0
[13] = tested on: NCI-H460
[14] = tested on: UACC-62
[15] = tested on: MOLT-4
[16] = tested on: HCT-116
[17] = tested on: HCT-15
[18] = tested on: T47D
[19] = tested on: Hs-578T

SMILES | GI50 [1] | GI50 [2] | GI50 [3] | GI50 [4] | GI50 [5] | GI50 [6] | GI50 [7] | GI50 [8] | GI50 [9] | GI50 [10] | GI50 [11] | GI50 [12] | GI50 [13] | GI50 [14] | GI50 [15] | GI50 [16] | GI50 [17] [µM] | GI50 [18] | GI50 [19]
CN(C)CCNC(=O)c1cccc2c(NC(CCC(N)=O)C(=O)O)c3ccccc3nc12 (stereo not drawn) | 18.5 µM (inactive) | > 100 µM (inactive) | 14.5 µM (inactive) | 11.3 µM (inactive) | 5.48 µM (inactive) | 10.4 µM (inactive) | 12.5 µM (inactive) | 4.95 µM (inactive) | 5.14 µM (inactive) | 9.51 µM (inactive) | 8.15 µM (inactive) | 9.84 µM (inactive) | 11.1 µM (inactive) | 19.9 µM (inactive) | 3.29 µM (inactive) | 6.03 µM (inactive) | 4.08 |  | 
CC(=O)c1ccc(NCc2cc(O)ccc2O)cc1 | 8.55 µM (inactive) |  | 17.9 µM (inactive) | 17.9 µM (inactive) | 24.8 µM (inactive) | 25.5 µM (inactive) | 40.3 µM (inactive) | 34.7 µM (inactive) |  | 21.3 µM (inactive) | 21.8 µM (inactive) | 13.3 µM (inactive) | 23.1 µM (inactive) | 15.3 µM (inactive) | 3.85 µM (inactive) | 17.4 µM (inactive) | 24.9 | 14.3 µM (inactive) | 29.4 µM (inactive)
CCOC(=O)C1=c2[nH]c3cccc4cccc(c43)n2C(=O)CC1 | 24.3 µM (inactive) | > 100 µM (inactive) | 30.5 µM (inactive) | > 100 µM (inactive) | 25.4 µM (inactive) | > 100 µM (inactive) | > 100 µM (inactive) |  |  | > 100 µM (inactive) | > 100 µM (inactive) | 34.4 µM (inactive) | > 100 µM (inactive) | > 100 µM (inactive) | > 100 µM (inactive) | 45.6 µM (inactive) | 39.3 | 22.5 µM (inactive) | 
CCOP(=O)(OCC)C(N)c1ccc(Cl)cc1 (stereo not drawn) | > 100 µM (inactive) |  | > 100 µM (inactive) | > 100 µM (inactive) | > 100 µM (inactive) | > 100 µM (inactive) | > 100 µM (inactive) |  | > 100 µM (inactive) | > 100 µM (inactive) | > 100 µM (inactive) | > 100 µM (inactive) | > 100 µM (inactive) | > 100 µM (inactive) | > 100 µM (inactive) | > 100 µM (inactive) | > 100 | > 100 µM (inactive) | > 100 µM (inactive)
C#Cc1cc(-c2nc3ccccc3s2)ccc1N | 23.3 µM (inactive) | 25.1 µM (inactive) | 11 µM (inactive) | 20.5 µM (inactive) | 13.7 µM (inactive) | 22 µM (inactive) | 16.1 µM (inactive) | 12.4 µM (inactive) | 25.8 µM (inactive) | 32 µM (inactive) | 20.6 µM (inactive) | 34.4 µM (inactive) | 16.5 µM (inactive) | 17.5 µM (inactive) | 22.6 µM (inactive) | 16.6 µM (inactive) | 17.5 | 14.5 µM (inactive) | 
C(=N\Nc1nnc2c(n1)[nH]c1ccccc12)/c1cccnc1 |  |  | > 100 µM (inactive) | > 100 µM (inactive) | > 100 µM (inactive) | > 100 µM (inactive) | > 100 µM (inactive) | > 100 µM (inactive) | > 100 µM (inactive) | > 100 µM (inactive) | > 100 µM (inactive) | > 100 µM (inactive) | > 100 µM (inactive) | > 100 µM (inactive) | > 100 µM (inactive) | > 100 µM (inactive) | > 100 | > 100 µM (inactive) | > 100 µM (inactive)
CC1=NN(c2ccc(S(=O)(=O)O)cc2)C2(C1)SCC(=O)N2c1nc2ccccc2s1 (stereo not drawn) |  |  | > 100 µM (inactive) | > 100 µM (inactive) | 66.1 µM (inactive) | > 100 µM (inactive) | > 100 µM (inactive) | > 100 µM (inactive) | > 100 µM (inactive) | > 100 µM (inactive) | > 100 µM (inactive) | > 100 µM (inactive) | > 100 µM (inactive) | > 100 µM (inactive) | 46.9 µM (inactive) | > 100 µM (inactive) | > 100 | > 100 µM (inactive) | > 100 µM (inactive)
COc1cccc2c1OC1c3ccccc3OCC1(O)C2 (stereo not drawn) | > 100 µM (inactive) |  | > 100 µM (inactive) | > 100 µM (inactive) | > 100 µM (inactive) | > 100 µM (inactive) |  | > 100 µM (inactive) | > 100 µM (inactive) | > 100 µM (inactive) | > 100 µM (inactive) | > 100 µM (inactive) |  | > 100 µM (inactive) | > 100 µM (inactive) | > 100 µM (inactive) | > 100 | > 100 µM (inactive) | 
CCOC(=O)C(Cc1ccc(OC(=O)c2ccc(OC)cc2OC)cc1)NC(=O)C(F)(F)F (stereo not drawn) | 19.2 µM (inactive) |  | 23.1 µM (inactive) | 29 µM (inactive) | 18.6 µM (inactive) | 40.1 µM (inactive) |  | 65.2 µM (inactive) | 31.1 µM (inactive) | > 100 µM (inactive) | 32.1 µM (inactive) | 31.9 µM (inactive) | 34.8 µM (inactive) | 16.1 µM (inactive) | 16.8 µM (inactive) | 34.1 µM (inactive) | 21.1 | 23.8 µM (inactive) | 27.5 µM (inactive)
O/N=N\c1nc(-c2cccnc2)nc2ccccc12 | > 100 µM (inactive) |  |  | > 100 µM (inactive) |  | > 100 µM (inactive) | > 100 µM (inactive) | > 100 µM (inactive) | > 100 µM (inactive) | > 100 µM (inactive) | > 100 µM (inactive) | > 100 µM (inactive) | > 100 µM (inactive) | > 100 µM (inactive) | > 100 µM (inactive) | > 100 µM (inactive) | 96.8 | > 100 µM (inactive) | > 100 µM (inactive)
CCOc1cc2c(cc1O)/C(=N\OC)C[C@@H]1[C@@H]2CC[C@]2(C)[C@@H](O)CC[C@@H]12 | 0.299 µM (active) | 0.0127 µM (active) | 7.64 µM (inactive) |  | 0.122 µM (active) | 0.372 µM (active) | 1.61 µM (inactive) | 0.106 µM (active) | 0.625 µM (active) | 21.6 µM (inactive) | 0.135 µM (active) | < 0.0403 µM (active) | 0.308 µM (active) | < 0.0306 µM (active) | 0.255 µM (active) | < 0.0296 µM (active) | 0.0653 |  | 0.0698 µM (active)
CN(C(=O)C1(C(=O)C=[N+]=[N-])CC1)c1ccccc1 | > 100 µM (inactive) | > 100 µM (inactive) |  |  | > 100 µM (inactive) | > 100 µM (inactive) | > 100 µM (inactive) | > 100 µM (inactive) | > 100 µM (inactive) | > 100 µM (inactive) | > 100 µM (inactive) | > 100 µM (inactive) | > 100 µM (inactive) | > 100 µM (inactive) | > 100 µM (inactive) | > 100 µM (inactive) | > 100 |  | > 100 µM (inactive)
CN1B(c2ccccc2)N(C)C(=O)N(C)C1=O | > 100 µM (inactive) |  | > 100 µM (inactive) | 52.2 µM (inactive) |  | > 100 µM (inactive) |  | > 100 µM (inactive) | > 100 µM (inactive) | > 100 µM (inactive) | > 100 µM (inactive) | > 100 µM (inactive) | > 100 µM (inactive) | > 100 µM (inactive) |  | > 100 µM (inactive) | > 100 | > 100 µM (inactive) | 81.3 µM (inactive)
COC(=O)CC[N+]1=CCC(c2ccccc2)(c2ccccc2)O1 |  |  | > 100 µM (inactive) | > 100 µM (inactive) |  | > 100 µM (inactive) | > 100 µM (inactive) | > 100 µM (inactive) | > 100 µM (inactive) | > 100 µM (inactive) | > 100 µM (inactive) | > 100 µM (inactive) | > 100 µM (inactive) | > 100 µM (inactive) | > 100 µM (inactive) | > 100 µM (inactive) | > 100 | > 100 µM (inactive) | > 100 µM (inactive)
CC(NC(=O)C(N)Cc1ccc(O)cn1)C(=O)O (stereo not drawn) | > 100 µM (inactive) | > 100 µM (inactive) | > 100 µM (inactive) | > 100 µM (inactive) | > 100 µM (inactive) | > 100 µM (inactive) | > 100 µM (inactive) | > 100 µM (inactive) | > 100 µM (inactive) | > 100 µM (inactive) | > 100 µM (inactive) | > 100 µM (inactive) | > 100 µM (inactive) |  | > 100 µM (inactive) | > 100 µM (inactive) | > 100 |  | > 100 µM (inactive)
Cc1ccc(NC(=O)CSc2nnc(Cc3ccccc3)o2)c(C)c1 | > 100 µM (inactive) | > 100 µM (inactive) |  |  | > 100 µM (inactive) | > 100 µM (inactive) | > 100 µM (inactive) | > 100 µM (inactive) | > 100 µM (inactive) |  | > 100 µM (inactive) | > 100 µM (inactive) | > 100 µM (inactive) | > 100 µM (inactive) | > 100 µM (inactive) | > 100 µM (inactive) | > 100 |  | 
COC(=O)C1C(O)C(C(=O)OC)C(C)N(C)C1C (stereo not drawn) | > 100 µM (inactive) | > 100 µM (inactive) | > 100 µM (inactive) | > 100 µM (inactive) | > 100 µM (inactive) | > 100 µM (inactive) | > 100 µM (inactive) | > 100 µM (inactive) |  | > 100 µM (inactive) | > 100 µM (inactive) | > 100 µM (inactive) | > 100 µM (inactive) | > 100 µM (inactive) | > 100 µM (inactive) | > 100 µM (inactive) | > 100 |  | 
